41 compounds from ChEMBL document CHEMBL6109084 (Eur J Med Chem, 2025) can be followed below.

One assay addresses Coagulation factor XI (Homo sapiens, UniProt P03951). Put plainly: Inhibition of human FXIa using p-Glu-Pro-Arg-pNA.HCl as substrate incubated for 30 mins followed by substrate addition and measured after 60 mins by microplate reader analysis.
Another assay deals with Plasma. In words: Anticoagulant activity in citrated human plasma assessed as prolongation of activated partial thromboplastin time at 1 uM incubated for 3 mins by aPTT reagent based automated coagulometric analysis relative to control. Type of assay: functional. Particulars: 0.05 h.

For orientation: IC50 means the concentration at which inhibition is half-maximal. The low end stands for higher potency, the high end for lower potency.

Chain of Coagulation factor XI (P03951 19-387 limits assumed): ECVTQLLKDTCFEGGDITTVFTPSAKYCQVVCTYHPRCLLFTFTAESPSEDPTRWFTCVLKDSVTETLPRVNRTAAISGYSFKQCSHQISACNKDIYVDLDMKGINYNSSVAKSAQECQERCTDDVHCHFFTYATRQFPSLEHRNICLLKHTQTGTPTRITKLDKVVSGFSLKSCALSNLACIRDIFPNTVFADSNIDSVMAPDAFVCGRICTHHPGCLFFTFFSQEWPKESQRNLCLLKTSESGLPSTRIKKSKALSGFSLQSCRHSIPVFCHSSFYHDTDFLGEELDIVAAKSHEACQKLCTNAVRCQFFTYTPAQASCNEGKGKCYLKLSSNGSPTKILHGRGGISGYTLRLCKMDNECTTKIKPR
Chain of Coagulation factor XI (P03951 388-625 limits assumed): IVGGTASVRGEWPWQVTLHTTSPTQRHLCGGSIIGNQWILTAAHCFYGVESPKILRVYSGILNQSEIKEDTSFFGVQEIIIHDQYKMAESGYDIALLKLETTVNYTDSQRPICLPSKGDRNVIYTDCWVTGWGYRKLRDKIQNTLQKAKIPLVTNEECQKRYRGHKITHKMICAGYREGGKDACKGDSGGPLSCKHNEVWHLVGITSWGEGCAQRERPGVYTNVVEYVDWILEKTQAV

The compound `COc1cn(C(C)c2cccc(-c3ccncc3)c2)c(=O)cc1-c1cc(Cl)ccc1-n1cnnn1` (centres undefined) showed an IC50 on Coagulation factor XI of 2.4 nM. For the same compound, the Activity in the assay on Plasma came to 80.1%.

At Coagulation factor XI, `COc1cn(Cc2ccc(F)c(-c3ccc(NC(C)=O)cc3)c2)c(=O)cc1-c1cc(Cl)ccc1-n1cnnn1` registered an IC50 of 1.9 nM. Also, in the assay on Plasma, the Activity amounted to 86.8%.

The compound `COc1cn(Cc2ccc(-c3ccc(O)cc3)cc2)c(=O)cc1-c1cc(Cl)ccc1-n1cnnn1` gave an IC50 against Coagulation factor XI of 203 nM. This counts as sub-micromolar.

On Coagulation factor XI, `COc1cn(Cc2cccc(-c3ccc(C(N)=O)cc3F)c2)c(=O)cc1-c1cc(Cl)ccc1-n1cnnn1` yielded a concentration for half-maximal inhibition (IC50) of 3 nM. Also, the Activity in the assay on Plasma stood at 82.8%.

The compound `COc1cn(Cc2cccc(-c3ccc4[nH]ncc4c3)c2)c(=O)cc1-c1cc(Cl)ccc1-n1cnnn1` came in with an IC50 against Coagulation factor XI of 4 nM. Besides, the Activity with Plasma was 38.7%.

On Coagulation factor XI, `COc1cn(Cc2cccc(-c3ccc(N)nc3)c2)c(=O)cc1-c1cc(Cl)ccc1OC(F)F` showed an IC50 of over 500 nM.

Take `CNC(=O)c1ccc(-c2cccc(Cn3cc(OC)c(-c4cc(Cl)ccc4-n4cnnn4)cc3=O)c2)cc1`: at Coagulation factor XI, the IC50 was determined as 5.9 nM. Moreover, the Activity in the assay on Plasma is on record as 45.4%.

On Coagulation factor XI, `COc1c[nH]c(=O)cc1-c1cc(Cl)ccc1-n1cnnn1` yielded an IC50 of 1100 nM. This lies in the single-digit micromolar range.

Compound `COc1cn(Cc2ccc3ccccc3c2)c(=O)cc1-c1cc(Cl)ccc1-n1cnnn1` yielded a concentration for half-maximal inhibition (IC50) against Coagulation factor XI of 39 nM. This IC50 is about 28-fold lower than that of the compound before.

As for `COc1cn(Cc2cccc(-c3ccc(F)cc3F)c2)c(=O)cc1-c1cc(Cl)ccc1-n1cnnn1`, the IC50 at Coagulation factor XI is 15.1 nM.

In turn, `COc1cn(Cc2cccc(-c3cnc(N)nc3)c2)c(=O)cc1-c1cc(Cl)ccc1-n1cnnn1` yielded an IC50 against Coagulation factor XI of 11.5 nM.

At Coagulation factor XI, `COc1cn(Cc2cccc(-c3ccc(NC(C)=O)cc3)c2)c(=O)cc1-c1cc(Cl)ccc1-n1cnnn1` registered an IC50 of 6.4 nM. Also, the Activity in the assay on Plasma is 50.8%.

Take `CNC(=O)c1ccc(-c2cc(Cn3cc(OC)c(-c4cc(Cl)ccc4-n4cnnn4)cc3=O)ccc2F)cc1`: the IC50 against Coagulation factor XI turned out to be 5.2 nM. Further, the Activity in the assay with Plasma is reported as 49.9%.

Regarding `COc1cn(Cc2cccc(-c3ccc(F)cc3)c2)c(=O)cc1-c1cc(Cl)ccc1-n1cnnn1`, at Coagulation factor XI, the IC50 stood at 10.1 nM.

Compound `COc1cn(Cc2cccc(-c3ccc(N)nc3F)c2)c(=O)cc1-c1cc(Cl)ccc1-n1cnnn1` gave a 50% inhibitory concentration (IC50) against Coagulation factor XI of 0.39 nM. Moreover, the Activity in the assay on Plasma was 103.4%.

Regarding `COc1cn(Cc2ccc(F)c(-c3ccc(C(N)=O)cc3F)c2)c(=O)cc1-c1cc(Cl)ccc1-n1cnnn1`, on Coagulation factor XI, the IC50 stood at 4.7 nM. Besides, in the assay with Plasma, the Activity was found to be 47%.

As to `COc1cn(Cc2cccc(-c3ccc(N)nc3)c2)c(=O)cc1-c1cc(Cl)ccc1C(F)F`, the IC50 against Coagulation factor XI was over 1000 nM.

Compound `CC[C@H](c1cc(-c2ccc(N)nc2F)ccn1)n1cc(OC)c(-c2cc(Cl)ccc2-n2cnnn2)cc1=O` displayed an IC50 against Coagulation factor XI of 6.7 nM. Moreover, the Activity in the assay with Plasma worked out at 56.3%.

Compound `COc1cn(Cc2ccc(F)c(-c3ccncc3)c2)c(=O)cc1-c1cc(Cl)ccc1-n1cnnn1` returned an IC50 against Coagulation factor XI of 1.8 nM. For the same compound, the Activity in the assay on Plasma is reported as 129.8%.

`COc1cn(Cc2cccc(-c3ccc(N)nc3)c2)c(=O)cc1-c1cc(Cl)ccc1-n1cc(Cl)nn1` had an IC50 on Coagulation factor XI of 2.2 nM. In the assay on Plasma, the Activity was 82.8%.

Take `COc1cn(Cc2ccc(F)c(-c3ccc(N)nc3)c2)c(=O)cc1-c1cc(Cl)ccc1-n1cc(Cl)nn1`: it took 3.2 nM to reach half-maximal inhibition on Coagulation factor XI (IC50). The Activity in the assay with Plasma amounted to 55.4%.

Turning to `COc1ccc(Cn2cc(OC)c(-c3cc(Cl)ccc3-n3cnnn3)cc2=O)cc1-c1ccc(N)nc1`, on Coagulation factor XI, the IC50 turned out to be 1.7 nM. For the same compound, in the assay with Plasma, the Activity was found to be 50.4%.

Turning to `COc1ccc(-c2cccc(Cn3cc(OC)c(-c4cc(Cl)ccc4-n4cnnn4)cc3=O)c2)cc1`, the IC50 on Coagulation factor XI came out at 129 nM. This counts as sub-micromolar.

In turn, `COc1cn(Cc2cccc(-c3ccncc3)c2)c(=O)cc1-c1cc(Cl)ccc1C(F)F` displayed a half-maximal inhibitory concentration (IC50) against Coagulation factor XI of over 1000 nM.

`COc1cn(Cc2cccc(-c3ccc(O)cc3)c2)c(=O)cc1-c1cc(Cl)ccc1-n1cnnn1`: on Coagulation factor XI, it took 1.7 nM to reach half-maximal inhibition (IC50). Moreover, the Activity in the assay on Plasma is recorded as 26.6%.

The compound `COc1cn(Cc2cccc(-c3ccncc3)c2)c(=O)cc1-c1cc(Cl)ccc1-n1cc(Cl)nn1` came in with an IC50 at Coagulation factor XI of 4.2 nM. For the same compound, the Activity with Plasma was determined as 78.1%.

As to `COc1cn(Cc2cccc(-c3ccncc3)c2)c(=O)cc1-c1cc(Cl)ccc1OC(F)F`, the IC50 against Coagulation factor XI was over 500 nM.

`COc1cn(C(C)c2ccc(F)c(-c3ccc(N)nc3)c2)c(=O)cc1-c1cc(Cl)ccc1-n1cnnn1` (centres undefined) yielded a half-maximal inhibitory concentration (IC50) at Coagulation factor XI of 1.4 nM. Further, the Activity with Plasma is reported as 14.8%.

`CCC(c1cccc(-c2ccc(N)nc2)c1)n1cc(OC)c(-c2cc(Cl)ccc2-n2cc(Cl)nn2)cc1=O` (centres undefined) displayed an IC50 at Coagulation factor XI of 1.6 nM. Moreover, the Activity in the assay with Plasma is 55.6%.

For `COc1cn(C(C)c2cccc(-c3ccc(N)nc3)c2)c(=O)cc1-c1cc(Cl)ccc1-n1cnnn1` (centres undefined), at Coagulation factor XI, inhibition was half-maximal at 0.54 nM (IC50). Also, the Activity in the assay on Plasma worked out at 74.3%.

Regarding `COc1cn(Cc2ccc(F)c(-c3ccncc3)c2)c(=O)cc1-c1cc(Cl)ccc1-n1cc(Cl)nn1`, the half-inhibitory concentration (IC50) against Coagulation factor XI is 4.9 nM. Moreover, the Activity in the assay on Plasma was 74.7%.

At Coagulation factor XI, `COc1cn(Cc2cc(-c3cnc(N)nc3)ccn2)c(=O)cc1-c1cc(Cl)ccc1-n1cnnn1` displayed an IC50 of 95.3 nM.

In the case of `COc1cn(Cc2ccnc(-c3ccc(N)nc3)c2)c(=O)cc1-c1cc(Cl)ccc1-n1cnnn1`, the IC50 on Coagulation factor XI was found to be 0.33 nM. Moreover, the Activity in the assay with Plasma was 112.5%.

`CCC(c1cc(-c2ccc(N)nc2F)ccn1)n1cc(OC)c(-c2cc(Cl)ccc2-n2cnnn2)cc1=O` (racemic) gave an IC50 at Coagulation factor XI of 0.39 nM. For the same compound, the Activity in the assay on Plasma stood at 97.2%.

As for `COc1ccc(Cn2cc(OC)c(-c3cc(Cl)ccc3-n3cnnn3)cc2=O)cc1-c1ccncc1`, on Coagulation factor XI, the IC50 came to 2.1 nM. Moreover, in the assay with Plasma, the Activity is 70%.

For the compound `COc1cn(Cc2ccnc(-c3ccncc3)c2)c(=O)cc1-c1cc(Cl)ccc1-n1cnnn1`, the IC50 on Coagulation factor XI was 2.3 nM. For the same compound, in the assay with Plasma, the Activity stood at 113.1%.

For `COc1cn(Cc2cccc(-c3ccc(N)nc3)c2)c(=O)cc1-c1cc(Cl)ccc1-n1cnnn1`, at Coagulation factor XI, it took 0.35 nM to reach half-maximal inhibition (IC50). In addition, the Activity with Plasma turned out to be 143.3%.

`COc1cn(Cc2cccc(-c3ccc(N(C)C)cc3)c2)c(=O)cc1-c1cc(Cl)ccc1-n1cnnn1` had an IC50 against Coagulation factor XI of over 500 nM.

`COc1cn(Cc2ccc(F)c(-c3ccc(O)cc3)c2)c(=O)cc1-c1cc(Cl)ccc1-n1cnnn1` gave an IC50 on Coagulation factor XI of 1.4 nM. The Activity in the assay with Plasma worked out at 63.2%.

In the case of `COc1cn(Cc2ccc(F)c(-c3ccc4[nH]ncc4c3)c2)c(=O)cc1-c1cc(Cl)ccc1-n1cnnn1`, at Coagulation factor XI, the IC50 came to 1.3 nM. The Activity with Plasma came out at 57.1%.

With `COc1cn(Cc2ccc(F)c(-c3ccc(N)nc3)c2)c(=O)cc1-c1cc(Cl)ccc1-n1cnnn1`, the IC50 on Coagulation factor XI is 0.69 nM. Besides, the Activity in the assay on Plasma was 128.5%.
